Experimental data reported in patent publication US20030159953A1, “Carbohydrate medical solution and sulphite stabilisator in a multiple compartment container and use thereof” (priority 2003, published 2003).

Experiments:
[1] = tested on: mouse fibroblasts cells L-929; assay: In vitro assay for cytotoxicity (inhibition of cell growth, ICG); type: cell-based
Method: Medical solutions used for peritoneal dialysis were mixed with one part cell growth medium and 10% (volume/volume) fetal calf serum was added (Wieslander et al., 1991, Kidney Int. 40:77-79). Basal cytotoxicity of medical solution used for peritoneal dialysis were determined on mouse fibroblasts cells L-929 (CCL-1; ATTC, Rockville, Md., USA) as described earlier (Wieslander et al. 1993, Advances in Peritoneal Dialys, 9:31-35) and expressed as inhibition of cellgrowth (ICG).

[2] = Determination of acetaldehyde and formaldehyde (HPLC, 2,4-DNPH derivatives); type: physicochemical; conditions: Example 5: 1.5% glucose solution, sodium bisulphite 0, 0.5, 1 mM added before or after heat sterilisation 121° C. 1 hour
Method: Determination of acetaldehyde and formaldehyde: The samples for the determination of acetaldehyde were diluted 20 times to a final volume of 4 ml, prior to analysis. Acetaldehyde was prepared as hydrazone derivatives using 2,4-DNPH as derivative reagent. The standards were prepared in range 1.1-11.4 μM acetaldehyde, and 1.7-16.7 μM formaldehyde. Standards and samples were prepared by adding 2 ml 0.08% (weight/volume) 2,4-DNPH to 4 ml of each sample. The sample were concentrated on a solid phase extraction C18 column (Bond Elut LRC 200 mg/3 ml) and after rinsing with water, eluted with 1.6 ml acetonitrile. The analytical column was a Supelco C18 column (5 μm, 15 cm×4,6 mm). The elution of the substances was performed at constant flow of 1.7 ml/min by using a linear gradient of acetonitrile/water. The percentage acetonitrile/water (volume/volume) was initially 35/65 and at the gradient stop 12 minutes later 80/20. The wavelenght was set at 240 nm and the injected volume was 20 μl. The limit of quantification was for acetaldehyde. 1.1 μM. And for formaldehyde 1.7 μM.

O=S([O-])O.[Na+] [sodium bisulphite]
inhibition of cell growth (ICG) ([1]; Example 3: bisulphite in glucose compartment, 0-0.5 mM in final solution, 4% glucose, sterilised 121° C. 1 hour, mixed post sterilisation): decrease of the ICG value
inhibition of cell growth (ICG) ([1]; Example 4: sulphite in electrolyte compartment, concentrations in final solution as in example 3, 4% glucose, sterilised 121° C. 1 hour): decrease of the ICG value
inhibition of cell growth (ICG) ([1]; Example 5: 1.5% glucose solution, sodium bisulphite 0, 0.5, 1 mM added before or after heat sterilisation 121° C. 1 hour): decrease of the ICG value
level of acetaldehyde in sterilised solution [2]: decreased levels
level of formaldehyde in sterilised solution [2]: decreased levels
